# Where two headings read alike, the source gives them in different places.
# Assays:
# [1] = Pharmacokinetic study in rats after oral administration of N. incisum extract (HPLC-FLD of plasma); type: in vivo, Sprague–Dawley rats
# Experimental: HPLC analysis was performed on an Agilent 1100 HPLC (Agilent Technologies, USA) equipped with a quaternary pump, a degasser, an autosampler, a column thermostat compartment, and a diode array detector (DAD). An Agilent fluorescence detector was coupled to the Agilent system. Separation was carried out with a Hedera ODS column (4.6 mm × 250 mm, 5 μm) by gradient elution at a temperature of 40°C. Excitation and emission of the fluorescence detector were set to 300 nm and 490 nm, respectively. The analysis involved a constant flow rate of 1.0 mL min^−1 and an injection volume of 30 μL. The mobile phase comprised of (A) aqueous formic acid (0.1%, v/v) and (B) acetonitrile after degassing through ultrasonication using a gradient elution of 15–30% B at 0 to 10 min, 30–42% B at 10 to 20 min, 42% B at 20 to 65 min, 42–80% B at 65–70 min, and 80–90% at 70–75 min. The reequilibration time of gradient elution was 10 min. Owing to the similarity in polarity of imperatorin and notopterol, it was essential to maintain 42% of acetonitrile for 45 min to ensure that the two compounds were well separated.
# To a 100 μL aliquot of plasma sample, 10 μL IS solution was added. Samples were vortex-mixed for 2 min, extracted with 1000 μL ethyl acetate, and then centrifuged for 10 min at 18000 ×g. Supernatant was transferred into another centrifuge tube and evaporated to dryness using nitrogen gas. The dried residue was reconstituted by adding 100 μL methanol. The solution was shaken and ultrasonicated for 2 min. It was then centrifuged at 18000 ×g for 10 min. A 30 μL of the solution was run with the HPLC and analysis was performed.
# The PK study was carried out in accordance with the guidelines for the care and use of laboratory animals and approved by the Animal Ethics Committee of Tianjin University of Traditional Chinese Medicine. Eight male Sprague–Dawley rats weighing 180–220 g were kept at the animal center of Tianjin University of Traditional Chinese Medicine (Tianjin, China) with controlled conditions (temperature at 25 ± 2°C and relative humidity of 55 ± 5%). They were allowed free access to food and water and acclimatized for 7 days until 12 h before the experiment. According to the clinical dose used in human for each day, the rats were administered an oral dose of 4.2 g kg^−1 N. incisum extract suspended in 0.5% carboxymethylcellulose sodium salt aqueous solution (CMC-Na) and an amount of blood sample (200 μL) was collected at time 0, 0.083, 0.167, 0.25, 0.5, 0.75, 1, 1.5, 2, 3, 4, 6, 8, 12, and 24 h into heparin-pretreated tubes from the fossa orbitalis of each rat after oral administration of the extract. Blood plasma was immediately obtained by centrifuging the collected blood at 3300 ×g for 10 min and storing at −20°C until analysis.
# The DAS software (Drug and Statistics 1.0, Medical College of Wannan, China), a computer program, was used in calculating the pharmacokinetic parameters after administering N. incisum extract. Bergapten, imperatorin, and isoimperatorin where analyzed using a one-compartment analysis while notopterol was processed using a two-compartment analysis based on Akaike's information criterion (AIC) estimation.
# [2] = Stability of analytes in rat plasma (QC samples); type: in vitro ADME; conditions: n = 6; for Stability, Autosampler for 24 h, Mean: extracted rat plasma, autosampler 24 h; for Stability, Freeze-thaw cycles, Mean / Stability, At −80°C for 1 month, Mean: rat plasma; for Stability, Freeze-thaw cycles, Mean: three freeze/thaw cycles
# Experimental: Mixed quality control (QC) samples at high, medium, low, and LLOQ concentrations were made by spiking appropriate mixed standard solutions into blank rat plasma, giving plasma concentration ranges of 600, 60, 12, and 4 ng mL^−1 for bergapten, 6000, 600, 120, and 40 ng mL^−1 for imperatorin, 600, 60, 12, and 4 ng mL^−1 for notopterol, and 300, 30, 6, and 2 ng mL^−1 for isoimperatorin, respectively, followed by the same sample preparation and extraction method described above.
# The recovery was determined by comparing the observed peak area in extracted plasma samples to those of postprocessed spiked samples. […]
# [3] = Excretion study in rat urine, feces and bile after oral N. incisum extract; type: in vivo, Sprague–Dawley rats; conditions: 0–72 h, oral 4.2 g kg^−1 N. incisum extract; for cumulative excretion in feces: rat feces; for cumulative excretion in urine: rat urine
# Text: Sixteen male Sprague–Dawley (SD) rats (200 ± 20 g) were divided into two groups (group 1 were for collecting urine and fecal samples in metabolic cages while group 2 were for collecting bile samples from the bile duct using polyethylene tubes). For group 1, the rats were orally given N. incisum extract dissolved in 0.5% CMC-Na at a dosage of 4.2 g kg^−1 and placed in metabolic cages enabling collection of urine and fecal samples separately. The urine and fecal samples were collected at time intervals of 0–4, 4–8, 8–12, 12–24, 24–36, 36–48, 48–60, and 60–72 h. For group 2, the rats were anaesthetized with chloral hydrate at a dose of 0.3 g kg^−1 administered intraperitoneally. A polyethene tube was used in cannulating the bile duct ensuring continuous flow of bile. The rats were then administered the extract at a dose of 4.2 g kg^−1 and the bile samples were then collected at different time intervals (0-1, 1-2, 2-3, 3-4, 4-5, 5-6, 6-7, 7-8, and 8-9 h). After the volumes of urine and bile obtained were measured, these samples were stored at −20°C until analysis. The preparation of the urine and bile samples were the same as the plasma sample preparation described above. On the other hand, the fecal samples after collection were dried out in a drying oven at 40°C. After measuring the weights of the fecal samples, they were crushed by a mortar to achieve a uniform powder; 0.1 g of powdered feces was measured and 1 mL methanol was added in 1.5 mL polythene tubes, mixed sufficiently for 3 min, and extracted ultrasonically for 30 min. They were then centrifuged at 18000 ×g for 10 min. Supernatants were transferred into vials for analysis using HPLC-FLD.
# [4] = male, Sprague-Dawley, rat, plasma, po, 4.2 g/kg, rat plasma, oral 4.2 g kg^−1 N. incisum extract, n = 8, mean ± SD, read-out: T 1/2 (converted)
# [5] = male, Sprague-Dawley, rat, plasma, po, 4.2 g/kg, rat plasma, oral 4.2 g kg^−1 N. incisum extract, n = 8, mean ± SD, read-out: T max
# [6] = male, Sprague-Dawley, rat plasma, oral 4.2 g kg^−1 N. incisum extract, n = 8, mean ± SD, read-out: AUC0–∞
# [7] = male, Sprague-Dawley, rat plasma, oral 4.2 g kg^−1 N. incisum extract, n = 8, mean ± SD, read-out: C max
# [8] = male, Sprague-Dawley, rat plasma, oral 4.2 g kg^−1 N. incisum extract, read-out: total drug exposure in rats in over 24 h, AUC0–24
# [9] = rat plasma, oral 4.2 g kg^−1 N. incisum extract, n = 8, mean ± SD
# [10] = high QC (600, 6000, 600, 300 ng mL^−1)
# [11] = low QC (12, 120, 12, 6 ng mL^−1)
# [12] = medium QC (60, 600, 60, 30 ng mL^−1)
# [13] = male, Sprague-Dawley, rat, in vivo, po, 4.2 g/kg
"half-life [1, 4] [min]","Tmax [1, 5] [h]","AUC(0-inf) [1, 6] [ng·h/mL]","Cmax [1, 7] [ng/mL]","AUC(0-t) [1, 8] [ng·h/mL]","T 1/2 [1, 9] [h]","T max [1, 9] [h]",cumulative excretion in feces [3],cumulative excretion in urine [3],SMILES,other results
≤ 360,< 2,2120 ± 2870,145 ± 75.9,830 ± 762,5.62 ± 4.06,1.59 ± 0.97,7.7284 + 2.2114%,0.0084 + 0.0016%,"CC(C)=CCOc1c2ccoc2cc2oc(=O)ccc12 [Isoimperatorin, isoimperatorin]",–
≤ 360,–,296 ± 242,23.3 ± 6.87,102 ± 34.8,3.18 ± 3.44,0.45 ± 0.35,54.1083 + 4.4359%,0.1171 + 0.0096%,"CC(C)=CC(O)C/C(C)=C/COc1c2ccoc2cc2oc(=O)ccc12 (stereo not shown) [Notopterol, notopterol]","T max ([1]; rat plasma, oral 4.2 g kg^−1 N. incisum extract, n = 8, mean ± SD, listed as notopterol): below 2 h"

# The next lines start with the compound.
SMILES,"half-life [1, 4] [min]","Tmax [1, 5] [h]","AUC(0-inf) [1, 6] [ng·h/mL]","Cmax [1, 7] [ng/mL]","AUC(0-t) [1, 8] [ng·h/mL]","T 1/2 [1, 9] [h]","T max [1, 9] [h]",cumulative excretion in feces [3],cumulative excretion in urine [3],other results
"COc1c2ccoc2cc2oc(=O)ccc12 [Bergapten, bergapten]",720,~3,1960 ± 2490,184 ± 171,1640 ± 2490,12.8 ± 22.2,3.06 ± 3.71,about 80%,–,"Stability, Autosampler for 24 h, Mean ([2]; LLOQ QC (4, 40, 4, 2 ng mL^−1)): 100%; Stability, Autosampler for 24 h, Mean [2, 10]: 88.9%; Stability, Autosampler for 24 h, Mean [2, 11]: 101%; Stability, Autosampler for 24 h, Mean [2, 12]: 115%; Stability, Freeze-thaw cycles, Mean ([2]; LLOQ QC (4, 40, 4, 2 ng mL^−1)): 106%; Stability, Freeze-thaw cycles, Mean [2, 10]: 85.1%; Stability, Freeze-thaw cycles, Mean [2, 11]: 91.1%; Stability, Freeze-thaw cycles, Mean [2, 12]: 83.6%; Stability, At −80°C for 1 month, Mean ([2]; LLOQ QC (4, 40, 4, 2 ng mL^−1)): 80.5%; Stability, At −80°C for 1 month, Mean [2, 10]: 112%; Stability, At −80°C for 1 month, Mean [2, 11]: 91.1%; Stability, At −80°C for 1 month, Mean [2, 12]: 104%"
"CC(C)=CCOc1c2occc2cc2ccc(=O)oc12 [Imperatorin, imperatorin]",–,–,–,–,–,–,–,–,–,"AUC(0-inf) [1, 13]: 13900 ± 13900 ng·h/mL; AUC(0-t) [1, 13]: 11000 ± 12000 ng·h/mL; Cmax [1, 13]: 1670 ± 1500 ng/mL; T 1/2 [1, 13]: 4.99 ± 3.02 h; T max [1, 13]: 1.65 ± 1.80 h; half-life ([1]; male, Sprague-Dawley, rat, in vivo, po, 4.2 g/kg, T 1/2): ≤ 360 min; Tmax ([1]; male, Sprague-Dawley, rat, in vivo, po, 4.2 g/kg, T max): < 2 h"
"COc1ccc2ccc(=O)oc2c1CC=C(C)C [osthole, reference compound]",–,–,–,–,–,–,–,–,–,detection in rat plasma ([1]; after oral 4.2 g kg^−1 N. incisum extract): not detected

# — PMC5220503, “Simultaneous Determination of Bergapten, Imperatorin, Notopterol, and Isoimperatorin in Rat Plasma by High Performance Liquid Chromatography with Fluorescence Detection and Its Application to Pharmacokinetic and Excretion Study after Oral Administration of Notopterygium incisum Extract” (International Journal of Analytical Chemistry, 2016)
